The target in one assay is T1, JNK1 (Homo sapiens, UniProt P45983).
T1 construct: purchased Reaction Biology Corp
The assay is described as follows: HotSpot Kinase Assay, JNK1. As to conditions: HotSpot radiometric assay, 33P-ATP. The assay is classed as biochemical. Here is the method: (§1) The anti-JNK3 activity of compounds prepared as in the previous examples was evaluated using a Reaction Biology Corp. HotSpot Kinase Assay. Base reaction buffer was 20 mM HEPES (4-(2-hydroxyethyl)-1-piperazineethanesulfonic acid) at pH 7.5 with 10 mM MgCl2, 1 mM EGTA (ethylene glycol-bis(β-aminoethyl ether)-N,N,N′,N′-tetracetic acid), 0.02% Brij™ 35, 0.02 mg/mL BSA (bovine serum albumin), 0.1 mM Na3VO4, 2 mM DTT (dithiothreitol), and 1% DMSO. Required cofactors were added individually to each kinase reaction.
(§2) Activity against related enzymes JNK1 and P38a was further assessed using the same assay.

Assay [1] relates to c-jun phosphorylation in SH-SY5Y human neuroblastoma cell line. Kind of assay: In Cell Western Assay, p-c-jun after TNFa. In kind it is cell-based. Conditions: SH-SY5Y cells, 25 ng/ml TNFa 1 hour, read-out: Phosphoryl. in SH-SY5Y. Here is the method: SH-SY5Y human neuroblastoma cell line was utilized for the assay. […] Next day, cells were starved of serum for 2 hours by media replacement with serum free DMEM:F12. Cells were then pretreated with inhibitors in DMEM:F12 for 30 min, which was followed by the addition of 25 ng/ml of TNFa for 1 hour. At the end of incubation, cells were fixed with 3% paraformaldehyde for 20 min at room temperature. Following three washes with 0.1 M phosphate buffer (pH 7.0) with shaking during washes, cells were treated with Licor blocking buffer (1:1 dilution in PBS with 0.3% Triton X-100) for 1 hour on a shaker. […] Next day, cells were washed with PBS containing 0.3% Triton X-100 for 5 min each three times with shaking. […] Following three 5 min washes, cells were incubated for nuclei staining with Alexa 680 succinidimyl ester (Thermofisher cat #, A20008) at 1/40,000 dilution for 15 min with shaking and subsequent three 5 min washes. P-c-jun and nuclei signals were detected using Odyssey LiCor Infrared scanner. The p-c-jun signal of each well was normalized to the cell number using nuclei signal.

The target in a further assay is T2, JNK3 (Homo sapiens, UniProt P53779).
T2 construct: purchased Reaction Biology Corp
T2 sequence (P53779 whole entry): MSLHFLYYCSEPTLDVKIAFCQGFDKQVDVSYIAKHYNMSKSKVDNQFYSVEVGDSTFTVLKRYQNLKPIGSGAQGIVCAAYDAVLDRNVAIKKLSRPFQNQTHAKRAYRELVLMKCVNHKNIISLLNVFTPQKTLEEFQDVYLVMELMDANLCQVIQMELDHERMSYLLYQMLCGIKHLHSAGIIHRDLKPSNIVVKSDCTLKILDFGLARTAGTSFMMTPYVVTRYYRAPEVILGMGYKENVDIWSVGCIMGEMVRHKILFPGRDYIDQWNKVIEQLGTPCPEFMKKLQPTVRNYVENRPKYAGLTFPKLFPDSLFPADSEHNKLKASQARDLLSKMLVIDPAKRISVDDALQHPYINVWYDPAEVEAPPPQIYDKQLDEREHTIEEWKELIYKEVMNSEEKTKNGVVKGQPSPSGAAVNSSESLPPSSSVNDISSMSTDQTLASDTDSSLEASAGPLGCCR
The assay is described as follows: HotSpot Kinase Assay (Reaction Biology Corp.), anti-JNK3 activity. The assay is classed as biochemical. As to conditions: HotSpot radiometric assay, 33P-ATP. Here is the method:
as §1, §2

The next assay addresses T3, p38a (Homo sapiens, UniProt Q16539).
T3 construct: purchased Reaction Biology Corp
The assay is described as follows: HotSpot Kinase Assay, P38a. In kind it is biochemical. Conditions: HotSpot radiometric assay, 33P-ATP. How it is done:
as §1, §2

Read-outs that look alike come from different tables or passages of the source.

T1 sequence (P45983 whole entry): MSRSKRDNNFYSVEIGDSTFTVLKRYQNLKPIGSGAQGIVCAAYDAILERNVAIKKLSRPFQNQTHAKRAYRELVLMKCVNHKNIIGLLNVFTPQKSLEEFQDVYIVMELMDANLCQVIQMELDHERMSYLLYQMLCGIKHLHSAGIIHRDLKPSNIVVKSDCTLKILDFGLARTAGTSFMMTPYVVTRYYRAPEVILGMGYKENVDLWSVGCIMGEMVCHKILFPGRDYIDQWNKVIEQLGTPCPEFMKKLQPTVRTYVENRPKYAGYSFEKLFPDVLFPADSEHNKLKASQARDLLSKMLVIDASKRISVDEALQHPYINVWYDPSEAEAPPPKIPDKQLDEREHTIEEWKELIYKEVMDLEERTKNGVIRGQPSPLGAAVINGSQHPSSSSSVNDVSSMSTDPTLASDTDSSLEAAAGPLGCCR
T3 sequence (Q16539 whole entry): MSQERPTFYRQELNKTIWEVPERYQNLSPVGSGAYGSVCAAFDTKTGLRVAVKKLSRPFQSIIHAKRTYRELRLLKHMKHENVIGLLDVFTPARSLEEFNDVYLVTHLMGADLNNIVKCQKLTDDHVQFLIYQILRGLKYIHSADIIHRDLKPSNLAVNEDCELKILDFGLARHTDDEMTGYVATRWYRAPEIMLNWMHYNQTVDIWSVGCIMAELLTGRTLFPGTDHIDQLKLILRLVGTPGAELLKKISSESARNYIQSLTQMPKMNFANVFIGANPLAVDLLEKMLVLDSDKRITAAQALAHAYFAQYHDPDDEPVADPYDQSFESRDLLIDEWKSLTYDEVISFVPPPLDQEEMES

`CNC(=O)c1cc(-n2ncc3cc(Nc4ccccc4Cl)ncc32)cs1` [Compound 6, 4-(5-((2-chlorophenyl)amino)-1H-pyrazolo[3,4-c]pyridin-1-yl)-N-methylthiophene-2-carboxamide]: the IC50 against JNK1 is > 1000 nM; in assay [1] (printed as a numeric range), 10 to 100 nM; at JNK3 it was < 200 nM; against p38a, 200 to 1000 nM.

Regarding `[2H]C([2H])([2H])N1CC[C@H](NC(=O)c2cc(-n3ncc4cc(Nc5ccccc5Cl)c(F)cc43)cs2)C1` [Compound 36, (S)-4-(5-((2-chlorophenyl)amino)-6-fluoro-1H-indazol-1-yl)-N-(1-(methyl-d3)pyrrolidin-3-yl)thiophene-2-carboxamide], the IC50 on JNK1 was 200 to 1000 nM; in assay [1] it was < 200 nM; at JNK3, < 200 nM; against p38a, 200 to 1000 nM.

Regarding `Cc1nc2c(cnn2-c2csc(C(=O)NC3(C)COC3)c2)cc1Nc1ccccc1Cl` [Compound 79, 4-(5-((2-chlorophenyl)amino)-6-methyl-1H-pyrazolo[3,4-b]pyridin-1-yl)-N-(3-methyloxetan-3-yl)thiophene-2-carboxamide], the IC50 against JNK1 was > 1000 nM; at JNK3, 200 to 1000 nM; against p38a it was > 1000 nM.

For the compound `COCCNC(=O)c1cc(-n2ncc3nc(Nc4ccccc4Cl)ccc32)cs1` [Compound 55, 4-(5-((2-chlorophenyl)amino)-1H-pyrazolo[4,3-b]pyridin-1-yl)-N-(2-methoxyethyl)thiophene-2-carboxamide], the IC50 on JNK1 was > 1000 nM; against JNK3, < 200 nM; on p38a, 200 to 1000 nM.

`COCCNC(=O)c1cc(-n2ncc3cc(Nc4ccccc4Cl)c(F)cc32)cs1` [Compound 37, 4-(5-((2-chlorophenyl)amino)-6-fluoro-1H-indazol-1-yl)-N-(2-methoxyethyl)thiophene-2-carboxamide]: the IC50 on JNK1, on JNK3 and on p38a was < 200 nM in each case.

Regarding `CNC(=O)c1cc(-n2ncc3cc(Nc4ccccc4Cl)c(C)nc32)cs1` [Compound 76, 4-(5-((2-chlorophenyl)amino)-6-methyl-1H-pyrazolo[3,4-b]pyridin-1-yl)-N-methylthiophene-2-carboxamide], the IC50 against JNK1 was 200 to 1000 nM; against JNK3, < 200 nM; against p38a, 200 to 1000 nM.

`CC(C)N1CC[C@@H](NC(=O)c2cc(-n3ncc4cc(Nc5ccccc5Cl)ccc43)cs2)C1` [Compound 35, (R)-4-(5-((2-chlorophenyl)amino)-1H-indazol-1-yl)-N-(1-isopropylpyrrolidin-3-yl)thiophene-2-carboxamide]: the results for the IC50 on JNK1, at JNK3 and against p38a were 200 to 1000 nM, < 200 nM and 200 to 1000 nM, respectively.

Consider `O=C(N[C@H]1CCOC1)c1cc(-n2ncc3cc(Nc4ccccc4Cl)c(F)cc32)cs1` [Compound 32, (S)-4-(5-((2-chlorophenyl)amino)-6-fluoro-1H-indazol-1-yl)-N-(tetrahydrofuran-3-yl)thiophene-2-carboxamide], for which the IC50 against JNK1, on JNK3 and at p38a was < 200 nM in each case.

On to `CNC(=O)c1cc(-n2ncc3nc(Nc4ccccc4Cl)ccc32)cs1` [Compound 50, 4-(5-((2-chlorophenyl)amino)-1H-pyrazolo[4,3-b]pyridin-1-yl)-N-methylthiophene-2-carboxamide], for which the IC50 on JNK1 was > 1000 nM; in assay [1], < 200 nM; at JNK3, < 200 nM; at p38a it was 200 to 1000 nM.

On to `Cc1nc2c(cnn2-c2csc(C(=O)NC3COC3)c2)cc1Nc1cccc(F)c1Cl` [Compound 100, 4-(5-((2-chloro-3-fluorophenyl)amino)-6-methyl-1H-pyrazolo[3,4-b]pyridin-1-yl)-N-(oxetan-3-yl)thiophene-2-carboxamide], for which the results for the IC50 at JNK1, against JNK3 and at p38a were 200 to 1000 nM, < 200 nM and 200 to 1000 nM, respectively.

With `COc1cc2c(cnn2-c2csc(C(=O)NC3COC3)c2)cc1Nc1ccccc1Cl` [Compound 78, 4-(5-((2-chlorophenyl)amino)-6-methoxy-1H-indazol-1-yl)-N-(oxetan-3-yl)thiophene-2-carboxamide], the results for the IC50 at JNK1, against JNK3 and against p38a were > 1000 nM, < 200 nM and > 1000 nM, respectively.

`COCCNC(=O)c1cc(-n2ncc3cc(Nc4ccccc4Cl)ncc32)cs1` [Compound 17, 4-(5-((2-chlorophenyl)amino)-1H-pyrazolo[3,4-c]pyridin-1-yl)-N-(2-methoxyethyl)thiophene-2-carboxamide]: the IC50 on JNK1 is 200 to 1000 nM; on JNK3, < 200 nM; against p38a, < 200 nM.

`CNC(=O)c1cc(-n2ncc3cc(Nc4ccccc4Cl)c(F)cc32)cs1` [Compound 28, 4-(5-((2-chlorophenyl)amino)-6-fluoro-1H-indazol-1-yl)-N-methylthiophene-2-carboxamide]: the IC50 at JNK1 was 200 to 1000 nM; in assay [1] it was < 200 nM; against JNK3 it was < 200 nM; at p38a it was < 200 nM.

`O=C(NC1CN(C2CC2)C1)c1cc(-n2ncc3cc(Oc4ccccc4Cl)ccc32)cs1` [Compound 10, 4-(5-(2-chlorophenoxy)-1H-indazol-1-yl)-N-(1-cyclopropylazetidin-3-yl)thiophene-2-carboxamide]: the results for the IC50 on JNK1, against JNK3 and at p38a were > 1000 nM, < 200 nM and 200 to 1000 nM, respectively.

Consider `[2H]C([2H])([2H])N1CC[C@H](NC(=O)c2cc(-n3ncc4cc(Oc5ccccc5Cl)ccc43)cs2)C1` [Compound 9, (S)-4-(5-(2-chlorophenoxy)-1H-indazol-1-yl)-N-(1-(methyl-d3)pyrrolidin-3-yl)thiophene-2-carboxamide], for which the IC50 against JNK1 is > 1000 nM; in assay [1], > 1000 nM; on JNK3, < 200 nM; on p38a, > 1000 nM.

For the compound `O=C(NC1CCOCC1)c1cc(-n2ncc3cc(Nc4ccccc4Cl)c(F)cc32)cs1` [Compound 38, 4-(5-((2-chlorophenyl)amino)-6-fluoro-1H-indazol-1-yl)-N-(tetrahydro-2H-pyran-4-yl)thiophene-2-carboxamide], the IC50 against JNK1, against JNK3 and on p38a was < 200 nM throughout.

Consider `CNC(=O)c1cc(-n2ncc3cc(Oc4ccccc4Cl)cnc32)cs1` [Compound 64, 4-(5-(2-chlorophenoxy)-1H-pyrazolo[3,4-b]pyridin-1-yl)-N-methylthiophene-2-carboxamide], for which the IC50 on JNK1 was 200 to 1000 nM; at JNK3, < 200 nM; against p38a, 200 to 1000 nM.

On to `[2H]C([2H])([2H])N1CC[C@@H](NC(=O)c2cc(-n3ncc4cc(Oc5ccccc5Cl)ccc43)cs2)C1` [Compound 13, (R)-4-(5-(2-chlorophenoxy)-1H-indazol-1-yl)-N-(1-(methyl-d3)pyrrolidin-3-yl)thiophene-2-carboxamide], for which the figures for the IC50 on JNK1, at JNK3 and against p38a were > 1000 nM, < 200 nM and 200 to 1000 nM, respectively.

For `CNC(=O)c1cc(-n2ncc3cc(Nc4c(Cl)cccc4OC)cnc32)cs1` [Compound 109, 4-(5-((2-chloro-6-methoxyphenyl)amino)-1H-pyrazolo[3,4-b]pyridin-1-yl)-N-methylthiophene-2-carboxamide], the IC50 was > 1000 nM against JNK1, < 200 nM against JNK3 and 200 to 1000 nM on p38a.

With `[2H]C([2H])([2H])N1CC[C@H](NC(=O)c2cc(-n3ncc4cc(Nc5ccccc5Cl)ccc43)cs2)C1` [Compound 30, (S)-4-(5-((2-chlorophenyl)amino)-1H-indazol-1-yl)-N-(1-(methyl-d3)pyrrolidin-3-yl)thiophene-2-carboxamide], the IC50 against JNK1 is 200 to 1000 nM; in assay [1], < 200 nM; at JNK3, < 200 nM; against p38a, 200 to 1000 nM.

For the compound `CNC(=O)c1cc(-n2ncc3cc(Nc4c(F)cccc4Cl)c(F)cc32)cs1` [Compound 111, 4-(5-((2-chloro-6-fluorophenyl)amino)-6-fluoro-1H-indazol-1-yl)-N-methylthiophene-2-carboxamide], the results for the IC50 at JNK1, against JNK3 and at p38a were > 1000 nM, < 200 nM and 200 to 1000 nM, respectively.

Regarding `O=C(NC1COC1)c1cc(-n2ncc3cc(Oc4ccccc4Cl)cnc32)cs1` [Compound 70, 4-(5-(2-chlorophenoxy)-1H-pyrazolo[3,4-b]pyridin-1-yl)-N-(oxetan-3-yl)thiophene-2-carboxamide], the IC50 is > 1000 nM against JNK1, < 200 nM against JNK3 and > 1000 nM against p38a.
